This passage reports IC50 results from patent US20120149660A1, “NOVEL N-SUBSTITUTED 5-HYDROXYPYROLLINDES AS INHIBITORS OF MDM2-P53 INTERACTIONS” (priority 2010, published 2012).

Structures can show the parent of a compound that is named as a salt.

In the assay the target is interaction between p53 and MDM2 proteins (recombinant GST-tagged MDM2 / biotinylated p53 peptide) (Homo sapiens, UniProt Q00987). Kind of assay: HTRF (homogeneous time-resolved fluorescence) assay of p53-MDM2 interaction inhibition. Conditions: bsa: 0.02%. Format: binding. As to the method:
The ability of the compounds to inhibit the interaction between p53 and MDM2 proteins was measured by an HTRF (homogeneous time-resolved fluorescence) assay in which recombinant GST-tagged MDM2 binds to a peptide that resembles the MDM2-interacting region of p53. Binding of GST-MDM2 protein and p53-peptide (biotinylated on its N-terminal end) is registered by the FRET (fluorescence resonance energy transfer) between Europium (Eu)-labeled anti-GST antibody and streptavidin-conjugated Allophycocyanin (APC).
[…] Add 10 uL diluted compounds (1:5 dilution in reaction buffer) to each well, mix by shaking Add 20 uL biotinylated p53 peptide (180 nM working solution) in reaction buffer to each well and mix on shaker. Incubate at 37° C. for 1 h. Add 20 uL streptavidin-APC and Eu-anti-GST antibody mixture (6 nM Eu-anti-GST and 60 nM streptavidin-APC working solution) in TBS buffer with 0.2% BSA, shake at room temperature for 30 minutes and read using a TRF-capable plate reader at 665 and 615 nm (Victor 5; Perkin Elmer Wallac). If not specified, the reagents were purchased from Sigma Chemical Co.

Sequence of interaction between p53 and MDM2 proteins (recombinant GST-tagged MDM2 / biotinylated p53 peptide) (Q00987 whole entry): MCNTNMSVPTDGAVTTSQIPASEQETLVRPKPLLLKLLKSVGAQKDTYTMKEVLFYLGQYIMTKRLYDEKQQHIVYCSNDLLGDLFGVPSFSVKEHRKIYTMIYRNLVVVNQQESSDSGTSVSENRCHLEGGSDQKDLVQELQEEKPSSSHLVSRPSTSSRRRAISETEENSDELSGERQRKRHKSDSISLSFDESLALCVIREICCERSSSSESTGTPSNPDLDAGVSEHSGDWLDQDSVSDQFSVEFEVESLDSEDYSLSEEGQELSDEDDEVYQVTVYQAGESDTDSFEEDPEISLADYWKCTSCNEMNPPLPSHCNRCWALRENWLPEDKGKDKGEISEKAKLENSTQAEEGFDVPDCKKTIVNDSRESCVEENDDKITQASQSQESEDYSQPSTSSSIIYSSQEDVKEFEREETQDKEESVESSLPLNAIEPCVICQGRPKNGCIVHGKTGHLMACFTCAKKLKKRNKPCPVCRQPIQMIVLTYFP

On to `CC(C)(C)C[C@@H]1N(CC#Cc2ccc(C(=O)O)c(F)c2)[C@@H](CO)[C@H](c2cccc(Cl)c2F)[C@@]1(C#N)c1ccc(Cl)cc1F` [Example 18, 4-{3-[(2S,3R,4S,5R)-4-(3-chloro-2-fluoro-phenyl)-3-(4-chloro-2-fluoro-phenyl)-3-cyano-2-(2,2-dimethyl-propyl)-5-hydroxymethyl-pyrrolidin-1-yl]-prop-1-ynyl}-2-fluoro-benzoic acid], for which the IC50 stood at 70.8 nM.
For `CC(C)(C)C[C@@H]1N[C@@H](CO)[C@H](c2cccc(Cl)c2F)[C@@]1(C#N)c1ccc(Cl)cc1F` (racemic) [Example 3, rac(2S,3R,4S,5R)-4-(3-chloro-2-fluoro-phenyl)-3-(4-chloro-2-fluoro-phenyl)-2-(2,2-dimethyl-propyl)-5-hydroxymethyl-pyrrolidine-3-carbonitrile] the value was 971 nM.
For `CC(C)(C)C[C@@H]1N(CC[C@@H](O)[C@H](O)[C@H](O)CO)[C@@H](CO)[C@H](c2cccc(Cl)c2F)[C@@]1(C#N)c1ccc(Cl)cc1F` (racemic) [Example 4, rac(2S,3R,4S,5R)-4-(3-chloro-2-fluoro-phenyl)-3-(4-chloro-2-fluoro-phenyl)-2-(2,2-dimethyl-propyl)-5-hydroxymethyl-1-((3R,4S,5R)-3,4,5,6-tetrahydroxy-hexyl)-pyrrolidine-3-carbonitrile] the value was 164 nM; for `CC(C)(C)C[C@@H]1N(CC#C[Si](C)(C)C)[C@@H](CO)[C@H](c2cccc(Cl)c2F)[C@@]1(C#N)c1ccc(Cl)cc1F` [Example 11, (2S,3R,4S,5R)-4-(3-Chloro-2-fluoro-phenyl)-3-(4-chloro-2-fluoro-phenyl)-2-(2,2-dimethyl-propyl)-5-hydroxymethyl-1-(3-trimethylsilanyl-prop-2-ynyl)-pyrrolidine-3-carbonitrile], 1080 nM.
For `CC(C)(C)C[C@@H]1N[C@@H](CO)[C@H](c2cccc(Cl)c2F)[C@@]1(C#N)c1ccc(Cl)cc1F` [Example 7, (2S,3R,4S,5R)-4-(3-chloro-2-fluoro-phenyl)-3-(4-chloro-2-fluoro-phenyl)-2-(2,2-dimethyl-propyl)-5-hydroxymethyl-pyrrolidine-3-carbonitrile] the value was 182 nM; for `CCOC(=O)c1ccc(CCCN2[C@@H](CC(C)(C)C)[C@](C#N)(c3ccc(Cl)cc3F)[C@@H](c3cccc(Cl)c3F)[C@@H]2CO)cc1` [Example 6, 4-{3-[(2S,3R,4S,5R)-4-(3-chloro-2-fluoro-phenyl)-3-(4-chloro-2-fluoro-phenyl)-3-cyano-2-(2,2-dimethyl-propyl)-5-hydroxymethyl-pyrrolidin-1-yl]-propyl}-benzoic acid ethyl ester], 4130 nM; for `CC(C)(C)C[C@@H]1N[C@@H](CO)[C@H](c2cccc(Cl)c2)[C@@]1(C#N)c1ccc(Cl)cc1` (racemic) [Example 1, rac(2S,3R,4R,5R)-4-(3-chloro-phenyl)-3-(4-chloro-phenyl)-2-(2,2-dimethyl-propyl)-5-hydroxymethyl-pyrrolidine-3-carbonitrile], 2860 nM.
As to `CC(C)(C)C[C@@H]1N(CCCc2ccc(C(=O)O)cc2)[C@@H](CO)[C@H](c2cccc(Cl)c2F)[C@@]1(C#N)c1ccc(Cl)cc1F` [Example 5, 4-{3-[(2S,3R,4S,5R)-4-(3-chloro-2-fluoro-phenyl)-3-(4-chloro-2-fluoro-phenyl)-3-cyano-2-(2,2-dimethyl-propyl)-5-hydroxymethyl-pyrrolidin-1-yl]-propyl}-benzoic acid], the IC50 worked out at 212 nM.
As for “(1S,2S)-2-[(2S,3R,4S,5R)-4-(3-chloro-2-fluoro-phenyl)-3-(4-chloro-2-fluoro-phenyl)-3-cyano-2-(2,2-dimethyl-propyl)-5-hydroxymethyl-pyrrolidin-1-ylmethyl]-cyclopropanecarboxylic acid [Example 10b]”, the IC50 stood at 242 nM.
With `C#CCN1[C@@H](CC(C)(C)C)[C@](C#N)(c2ccc(Cl)cc2F)[C@@H](c2cccc(Cl)c2F)[C@@H]1CO` [Example 14, (2S,3R,4S,5R)-4-(3-chloro-2-fluoro-phenyl)-3-(4-chloro-2-fluoro-phenyl)-2-(2,2-dimethyl-propyl)-5-hydroxymethyl-1-prop-2-ynyl-pyrrolidine-3-carbonitrile] the figure was 2360 nM; with `CC(C)(C)C[C@@H]1N(CCCc2cn(C(c3ccccc3)(c3ccccc3)c3ccccc3)cn2)[C@@H](CO)[C@H](c2cccc(Cl)c2F)[C@@]1(C#N)c1ccc(Cl)cc1F` [Example 17, (2S,3R,4S,5R)-4-(3-chloro-2-fluoro-phenyl)-3-(4-chloro-2-fluoro-phenyl)-2-(2,2-dimethyl-propyl)-5-hydroxymethyl-1-[3-(1-trityl-1H-imidazol-4-yl)-propyl]-pyrrolidine-3-carbonitrile], 215 nM; with `Cc1ccc(CCCN2[C@@H](CC(C)(C)C)[C@](C#N)(c3ccc(Cl)cc3F)[C@@H](c3cccc(Cl)c3F)[C@@H]2CO)o1` [Example 13, (2S,3R,4S,5R)-4-(3-chloro-2-fluoro-phenyl)-3-(4-chloro-2-fluoro-phenyl)-2-(2,2-dimethyl-propyl)-5-hydroxymethyl-1-[3-(5-methyl-furan-2-yl)-propyl]-pyrrolidine-3-carbonitrile trifluoroacetate salt], 1670 nM.
As for `COC(=O)c1ccc(C#CCN2[C@@H](CC(C)(C)C)[C@](C#N)(c3ccc(Cl)cc3F)[C@@H](c3cccc(Cl)c3F)[C@@H]2CO)cc1F` [Example 15, 4-{3-[(2S,3R,4S,5R)-4-(3-chloro-2-fluoro-phenyl)-3-(4-chloro-2-fluoro-phenyl)-3-cyano-2-(2,2-dimethyl-propyl)-5-hydroxymethyl-pyrrolidin-1-yl]-prop-1-ynyl}-2-fluoro-benzoic acid methyl ester], the IC50 came out at 887 nM.
For `CC(C)(C)C[C@@H]1N(Cc2ccc(OCCO)cc2)[C@@H](CO)[C@H](c2cccc(Cl)c2F)[C@@]1(C#N)c1ccc(Cl)cc1F` [Example 9, (2S,3R,4S,5R)-4-(3-chloro-2-fluoro-phenyl)-3-(4-chloro-2-fluoro-phenyl)-2-(2,2-dimethyl-propyl)-1-[4-(2-hydroxy-ethoxy)-benzyl]-5-hydroxymethyl-pyrrolidine-3-carbonitrile] the value was 2110 nM; for `CC(C)(C)C[C@@H]1N(CCCC2CCOCC2)[C@@H](CO)[C@H](c2cccc(Cl)c2F)[C@@]1(C#N)c1ccc(Cl)cc1F` [Example 16, (2S,3R,4S,5R)-4-(3-chloro-2-fluoro-phenyl)-3-(4-chloro-2-fluoro-phenyl)-2-(2,2-dimethyl-propyl)-5-hydroxymethyl-1-[3-(tetrahydro-pyran-4-yl)-propyl]-pyrrolidine-3-carbonitrile], 489 nM.
Turning to `CC(C)(C)C[C@@H]1N(CCCc2ccc(C(N)=O)cc2)[C@@H](CO)[C@H](c2cccc(Cl)c2F)[C@@]1(C#N)c1ccc(Cl)cc1F` [Example 12, 4-{3-[(2S,3R,4S,5R)-4-(3-chloro-2-fluoro-phenyl)-3-(4-chloro-2-fluoro-phenyl)-3-cyano-2-(2,2-dimethyl-propyl)-5-hydroxymethyl-pyrrolidin-1-yl]-propyl}-benzamide trifluoroacetate salt], the IC50 is 1520 nM.
As to `CC(C)(C)C[C@@H]1N(CC[C@@H](O)[C@H](O)[C@H](O)CO)[C@@H](CO)[C@H](c2cccc(Cl)c2)[C@@]1(C#N)c1ccc(Cl)cc1` (racemic) [Example 2, rac(2S,3R,4R,5R)-4-(3-chloro-phenyl)-3-(4-chloro-phenyl)-2-(2,2-dimethyl-propyl)-5-hydroxymethyl-1-((3R,4S,5R)-3,4,5,6-tetrahydroxy-hexyl)-pyrrolidine-3-carbonitrile], the IC50 came out at 740 nM.
For `CC(C)(C)C[C@@H]1N(C[C@@H]2C[C@H]2C(=O)O)[C@@H](CO)[C@H](c2cccc(Cl)c2F)[C@@]1(C#N)c1ccc(Cl)cc1F` [Example 10a, (1R,2R)-2-[(2S,3R,4S,5R)-4-(3-chloro-2-fluoro-phenyl)-3-(4-chloro-2-fluoro-phenyl)-3-cyano-2-(2,2-dimethyl-propyl)-5-hydroxymethyl-pyrrolidin-1-ylmethyl]-cyclopropanecarboxylic acid] the value was 87 nM; for `CCOC(=O)C1CC1CN1[C@@H](CC(C)(C)C)[C@](C#N)(c2ccc(Cl)cc2F)[C@@H](c2cccc(Cl)c2F)[C@@H]1CO` (stereo partly drawn) [Example 8, 2-[(2S,3R,4S,5R)-4-(3-chloro-2-fluoro-phenyl)-3-(4-chloro-2-fluoro-phenyl)-3-cyano-2-(2,2-dimethyl-propyl)-5-hydroxymethyl-pyrrolidin-1-ylmethyl]-cyclopropanecarboxylic acid ethyl ester], 2320 nM.
